Test results published in the METLIN SMRT retention time set (Domingo-Almenara et al. 2019).

Test: gradient 5% acetonitrile 3 min, to 50% in 2 min, to 85% in 15 min, held 3 min, 100 µL/min
Settings: column: Zorbax Extend-C18 2.1 x 50 mm; eluents: water / acetonitrile, 0.1% formic acid
Summary of the method: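 Values are retention times taken from adduct peaks that software picked and an analyst inspected. The pure standards were run as mixtures of ~100 molecules on HPLC linked to a quadrupole time-of-flight mass spectrometer, in positive and negative ionization mode. A Zorbax Extend-C18 column (2.1 × 50 mm, 1.8 μm) was used at 100 μL/min with water and acetonitrile, each including 0.1% formic acid.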

Structure (SMILES)	RP-LC retention time
O=C(COc1cccc(C(F)(F)F)c1)N1CCN(c2ccc(-c3ccco3)nn2)CC1	739 s
COc1cccc(Sc2ccc(N3CCC(C(=O)N4CCN(c5ccccn5)CC4)CC3)nn2)c1	616 s
COc1ccc(NC(=O)Nc2nccn(-c3ccc(Cl)cc3)c2=O)cc1OC	854 s
CC1Oc2ccc(-c3csc(NC(=O)c4ccccc4)n3)cc2NC1=O (stereo not drawn)	862 s
CC1(C)CC(=O)c2cn(-c3ccccc3)c(=O)c(C(=O)NCc3cccs3)c2C1	924 s
CC(C)(C)NC(=O)Cn1ccn2nc(-c3ccccc3)c(CO)c2c1=O	721 s
CCc1onc(C)c1C1CCCN1C(=O)Cc1ccc(OC)c(OC)c1 (stereo not drawn)	718 s
CCCn1c(=O)sc2cc(S(=O)(=O)N3CCC(C(=O)NC)CC3)ccc21	730 s
CC(C)NC(=O)c1ccc2c(c1)nc(CN(C)C(=O)Nc1ccc3c(c1)OCO3)n2C	606 s
COc1cc(C(C)=O)ccc1OCC(O)CN1CCN(c2ccc(C)c(Cl)c2)CC1 (stereo not drawn)	585 s
O=S(=O)(c1ccc(-c2noc(-c3ccc(Cl)cc3)n2)cc1)N1CCOCC1	1160 s
CCOc1cccc(CN2C[C@@H]3C(=O)N(CCOC)C(=O)[C@@H]3C2)c1	578 s
Cc1ccc(N2C(=O)CN(S(C)(=O)=O)CC2(C)C(=O)NCc2ccccc2)c(C)c1 (stereo not drawn)	838 s
O=C(Nc1nnc(-c2ccc(C(F)(F)F)cc2)o1)C1CC1	714 s
O=C(CCc1ccccc1)Nc1c(-c2ccccc2)nc2ccccn12	663 s
OC[C@@H]1CN(Cc2cccc(OC(F)(F)F)c2)C[C@H]1c1ccncc1	570 s
CCCCOc1ccc(CNC(=O)C2CCN(Cc3cn(CC)c4ccc(OC)cc34)CC2)cc1	842 s
COc1ccc(-c2noc(CN3N=NC4C(=O)N(c5ccc(C)c(F)c5)C(=O)C43)n2)c(OC)c1 (stereo not drawn)	844 s
c1ccc(Nc2c(-c3ccccc3)nc3cnccn23)cc1	826 s
CCN1c2ccccc2C(=O)NC12CCN(C(=O)Cc1ccccc1C)CC2	849 s
CCc1cc(C2CCCN2Cc2ccc(OCC(N)=O)c(OC)c2)on1 (stereo not drawn)	570 s
O=C(c1ccccc1F)N1CCC(CNC(=O)C2(c3ccccc3)CCOCC2)CC1	706 s

Structure (SMILES)	RP-LC retention time
O=c1ccc(-c2ccc3c(c2)OCO3)nn1Cc1nc(-c2ccc3c(c2)OCO3)no1	934 s
CCN(CC)C(=O)c1ccc2c(c1)N(CC(=O)NCCOC)C(=O)CO2	624 s
O=C(NCc1ccc(Cl)cc1)c1ccc(Oc2nccnc2N2CCSCC2)cc1	986 s
O=C(Nc1ccc(SCc2nnc(-c3ccccc3)o2)cc1)c1ccc(Br)o1	1010 s
Cc1ccc(N2CC(c3noc(-c4ccc(Cl)cc4)n3)CC2=O)cc1 (stereo not drawn)	1110 s
Cc1noc(C)c1-c1ccc(S(=O)(=O)N2CCN(c3ccccc3)CC2)cc1	1080 s
Cc1cccc(S(=O)(=O)N2CCCC(Cn3c(C4CC4)nc4cccnc43)C2)c1 (stereo not drawn)	791 s
Cc1ccc(-c2noc(-c3cccc(S(=O)(=O)Nc4cccnc4)c3)n2)cc1	941 s
Cc1ccc(-n2nc(C(=O)Nc3ccc4c(c3)OCCO4)c3ncn(C)c(=O)c32)cc1	887 s
Cc1cccc(N(C)C(=O)CN2C(=O)NC3(CCCCC3)C2=O)c1	784 s
Cc1nc2cc(-c3noc(-c4ccsc4)n3)ccc2o1	977 s
CSc1ccccc1C(=O)NCC1CCN(C(=O)c2ccccc2F)CC1	704 s
O=C(Nc1cccc(F)c1)C1CCCN(S(=O)(=O)c2c[nH]c(C(=O)N3CCCC3)c2)C1 (stereo not drawn)	808 s
O=C(N[C@@H]1CN(c2ccncn2)C[C@H]1CO)C1CCCC1	550 s
Cc1sc(NC(=O)c2cccs2)nc1-c1ccc2c(c1)NC(=O)C(C)O2 (stereo not drawn)	883 s
Cc1cccc(-n2c(=O)c3c(cc(C)n3C)n(CC(=O)Nc3cccc(Br)c3)c2=O)c1	962 s
CC(C)C(=O)n1nc(-c2ccccc2)nc1N	888 s
COc1ccc(-c2noc(C3CC(=O)N(c4ccc(Cl)cc4)C3)n2)c(OC)c1 (stereo not drawn)	928 s
COc1ccccc1-c1ccc(=O)n(Cc2nc(-c3ccc(F)cc3)no2)n1	995 s
O=c1n(Cc2c(F)cccc2Cl)nc2c(S(=O)(=O)N3CCc4ccccc4C3)cccn12	975 s
CC(C)Cn1cc(CCNS(=O)(=O)Cc2cccc(Cl)c2)c2cccnc21	969 s
Cn1ncc2c(N3CCSCC3)nc(C(=O)Nc3ccccc3)nc21	819 s

Structure (SMILES)	RP-LC retention time
O=C(NCc1n[nH]c(=O)c2ccccc12)c1ccc([N+](=O)[O-])o1	606 s
O=C(NCC(O)(c1ccccc1)C(F)(F)F)c1cccs1 (stereo not drawn)	815 s
COc1ccc(S(=O)(=O)NCCc2cn(C)c3ncccc23)cc1Cl	760 s
COc1ccc(OC)c(CNC(=O)C2CCCN(c3nnc4ccc(Cl)cn34)C2)c1 (stereo not drawn)	737 s
Cn1ncc2c3ccccc3n(CC(=O)NCCCN3CCN(Cc4ccccc4)CC3)c2c1=O	597 s
CC(C)(Oc1ccc(Cl)cc1)C(=O)NCC1(O)CCc2ccccc21 (stereo not drawn)	736 s
O=C(CS(=O)Cc1cnn(-c2ccccc2)c1-n1cccc1)NCc1cccc(F)c1 (stereo not drawn)	838 s
CCC(=O)NCc1nc2c(n1C)CN(S(=O)(=O)c1c(C)c(C)cc(C)c1C)CC2	556 s
O=C(Cc1c(Sc2cccc(F)c2)[nH]c2ccccc12)N1CCN(c2ncccn2)CC1	975 s
O=C(CN1C(=O)C(C(=O)N2CCCCC2)Sc2ccccc21)NCCC1=CCCCC1 (stereo not drawn)	1120 s
Cc1c(C(=O)C(=O)NCc2ccccn2)c2ccccc2n1C	625 s
COc1ccc2cc(C(=O)N3CCC(CC(=O)NCCc4c[nH]c5ccc(OC)cc45)CC3)[nH]c2c1	759 s
COCCC(=O)N1CCC2(CCC2O)CC1 (stereo not drawn)	593 s
O=C(Nc1nc(-c2ccc3ccccc3c2)cs1)c1cccc(Cn2cc(Cl)cn2)c1	1140 s
CCCS(=O)(=O)N1CCC(c2noc(-c3ccccc3)n2)C1 (stereo not drawn)	933 s
CCN(CC)c1nc(-c2ccc(C(C)(C)C)cc2)nc2ccccc12	943 s
CC1CCN(C(=O)C2c3ccccc3CCN2CC(=O)NCc2cccc(Cl)c2)CC1 (stereo not drawn)	973 s
Cc1noc(COC2CCN(C(=O)c3ccc4c(c3)OCO4)CC2)n1	702 s
CCOC(=O)c1c(NC(=O)CSc2n[nH]c(N)n2)sc(C)c1C	696 s
Cn1cnc(S(=O)(=O)N2CCC(C(=O)N3CCN(c4cccc(Cl)c4)CC3)CC2)c1	780 s
O=S(=O)(c1cccn2c(SCc3cc(F)cc(F)c3)nnc12)N1CCCC1	845 s
Cn1c(=O)c(N2CCN(C(=O)c3cc(Cl)ccc3F)CC2)nc2ccncc21	560 s

Structure (SMILES)	RP-LC retention time
COc1ccccc1CNC(=O)c1nc2cccnc2n(CC(C)C)c1=O	976 s
Cc1ccccc1-c1nnc(COc2ccc(NC(=O)c3n[nH]c4c3CCCC4)cc2)o1	975 s
CCCn1c(=O)sc2cc(S(=O)(=O)N3CCC(C(=O)N4CCC(C)CC4)CC3)ccc21	994 s
Cc1oc(-c2[nH]ncc2C(=O)N2CCCC2)cc1S(=O)(=O)Nc1cc(F)ccc1F	699 s
O=C(CC1OC(=O)c2ccccc21)c1ccc(Br)cc1 (stereo not drawn)	905 s
CC(C)Cc1ccc(S(=O)(=O)N2CCCC(CNC(=O)c3ccccc3)C2)cc1 (stereo not drawn)	1120 s
Cc1nn2c(CNS(=O)(=O)c3ccc(F)cc3F)c(-c3ccccc3)nc2s1	867 s
CCn1nccc1-c1cccc(-c2noc(-c3ccc(F)cc3)n2)c1	1240 s
Cc1nn(-c2ccccc2)cc1C(=O)N1CCC(CC(=O)NCCc2c[nH]c3ccccc23)CC1	751 s
Cn1ncc(NC(=O)Cc2ccc(Cl)cc2)c(N2CCOCC2)c1=O	772 s
COc1ccccc1OCC1c2ccsc2CCN1C(=O)CN(CC1CC1)C(=O)C(C)C (stereo not drawn)	947 s
CCOc1ccc(C(=O)N2CCC3(CC2)NC(=O)c2cc(Cl)ccc2N3C)cc1	853 s
COc1cc(NC(=O)Cc2cn3cc(Cl)ccc3n2)c(OC)cc1Cl	675 s
CCc1nc(OCC(=O)Nc2cc(F)ccc2F)c2ccccc2n1	854 s
CNc1nc(Nc2ccccc2F)nc2ccccc12	634 s
Cc1ccc2c(Nc3cccc(C#N)c3)c(C(=O)N3CCCCC3)cnc2n1	598 s
COCCCN(C(=O)c1ccc(F)cc1)C(C)C(=O)c1c(C)[nH]c(C(=O)OC)c1C (stereo not drawn)	754 s
CCOc1c(C)cc(S(=O)(=O)NCC2(O)CCOCC2)cc1C	690 s
CN1CCN(CCCNC(=O)C2CCN(S(=O)(=O)c3ccc4c(c3)sc(=O)n4C)CC2)CC1	580 s
CCCn1ccc2oc(C)c(C(=O)N3CCN(C4CCCCC4)CC3)c2c1=O	612 s
Cc1cc(C(=O)Nc2cccc(Cl)c2)nc2ccnn12	988 s
Cc1ccc(NS(=O)(=O)c2cc(-c3[nH]ncc3C(=O)N3CCCC3)oc2C)cc1	715 s
